Reference: patent publication US10808018B2, “Erythropoietin-derived peptides and methods of protecting cells from oxidative damage induced by reactive oxygen species” (SYLUS CO., LTD., priority 2017, dated 2020)
Peptide text beside a SMILES is read from it.

System: PC12 cells
Assay: Cell proliferation side effect, MTS assay
Format: cell-based
Details: peptide 1 pM to 0.5 nM, 48 hours, FIG. 4
Experimental: Side effects such as cell proliferation were determined for the three peptides (ML1-L2, ML1-K2, and ML1-R2) prepared in Example 4.
In detail, to determine cell proliferation degree, an MTS assay (CellTiter 96 Aqueous One Solution Cell Proliferation Assay, Promega, Madison, Wis., USA) was performed. […] The initial number of cells (0 hour) and the number of cells after 48 hours were counted. Intracellular soluble formazan produced by cell reduction was determined by recording absorbance of each 96-well plate at a wavelength of 490 nm using a VERSA MAX.

SMILES	cell proliferation rate (side effect)
CC(C)C[C@H](NC(=O)CNC(=O)[C@H](CO)NC(=O)[C@@H](NC(=O)[C@H](C)NC(=O)[C@H](CCCCN)NC(=O)[C@H](CC(=O)O)NC(=O)[C@@H](NC(=O)[C@H](Cc1c[nH]cn1)NC(=O)[C@@H](N)CCCCN)C(C)C)C(C)C)C(=O)N[C@@H](CCCNC(=N)N)C(=O)N[C@@H](CO)C(=O)N[C@@H](CC(C)C)C(=O)N[C@H](C(=O)N[C@H](C(=O)N[C@@H](CCCCN)C(=O)O)[C@@H](C)O)[C@@H](C)O [ML1-K2] (H-KHVDKAVSGLRSLTTK-OH)	no side effect of cell proliferation
CC(C)C[C@H](NC(=O)[C@@H](NC(=O)[C@@H](NC(=O)[C@H](CC(C)C)NC(=O)[C@H](CO)NC(=O)[C@H](CCCNC(=N)N)NC(=O)[C@H](CC(C)C)NC(=O)CNC(=O)[C@H](CO)NC(=O)[C@@H](NC(=O)[C@H](C)NC(=O)[C@H](CCCCN)NC(=O)[C@H](CC(=O)O)NC(=O)[C@@H](NC(=O)[C@H](Cc1c[nH]cn1)NC(=O)[C@@H](N)CC(C)C)C(C)C)C(C)C)[C@@H](C)O)[C@@H](C)O)C(=O)O [ML1-L2] (H-LHVDKAVSGLRSLTTL-OH)	no side effect of cell proliferation
CC(C)C[C@H](NC(=O)CNC(=O)[C@H](CO)NC(=O)[C@@H](NC(=O)[C@H](C)NC(=O)[C@H](CCCCN)NC(=O)[C@H](CC(=O)O)NC(=O)[C@@H](NC(=O)[C@H](Cc1c[nH]cn1)NC(=O)[C@@H](N)CCCNC(=N)N)C(C)C)C(C)C)C(=O)N[C@@H](CCCNC(=N)N)C(=O)N[C@@H](CO)C(=O)N[C@@H](CC(C)C)C(=O)N[C@H](C(=O)N[C@H](C(=O)N[C@@H](CCCNC(=N)N)C(=O)O)[C@@H](C)O)[C@@H](C)O [ML1-R2] (H-RHVDKAVSGLRSLTTR-OH)	no side effect of cell proliferation
